Measurements taken from PubChem BioAssay AID2060496 (Molecular Pharmacology Branch, DTP, NCI, 2025).

Test system: 276233-004-R-J1-PDC complex spheroid viability
Test: Anticancer human tumor 276233-004-R-J1-PDC patient-derived colon adenocarcinoma cell line growth inhibition [GQUAD]
Conditions: for IC50: curve of first compound; for viability, T/C: stronger effect = lower value; active means viability on the fitted dose curve at most 10% of control; inactive means the rest
Outline: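 Tumor cells were grown as complex spheroids with HUVEC endothelial cells and mesenchymal stem cells as stroma. G-quadruplex stabilizers were combined with targeted agents over half-log dilutions from near the clinical Cmax, or from 10 microM.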

[1] = second compound 0.0316 µM, first compound 0.0316 µM
[2] = second compound 0.0316 µM, first compound 0.1 µM
[3] = second compound 0.0316 µM, first compound 0.316 µM
[4] = second compound 0.0316 µM, first compound 1 µM
[5] = second compound 0.0316 µM, first compound 3.16 µM
[6] = second compound 0.0316 µM, first compound 10 µM
[7] = second compound 0.1 µM, first compound 0.0316 µM
[8] = second compound 0.1 µM, first compound 0.1 µM
[9] = second compound 0.1 µM, first compound 0.316 µM
[10] = second compound 0.1 µM, first compound 1 µM
[11] = second compound 0.1 µM, first compound 3.16 µM
[12] = second compound 0.1 µM, first compound 10 µM
[13] = second compound 0.316 µM, first compound 0.0316 µM
[14] = second compound 0.316 µM, first compound 0.1 µM
[15] = second compound 0.316 µM, first compound 0.316 µM
[16] = second compound 0.316 µM, first compound 1 µM
[17] = second compound 0.316 µM, first compound 3.16 µM
[18] = second compound 0.316 µM, first compound 10 µM
[19] = second compound 1 µM, first compound 0.0316 µM
[20] = second compound 1 µM, first compound 0.1 µM
[21] = second compound 1 µM, first compound 0.316 µM
[22] = second compound 1 µM, first compound 1 µM
[23] = second compound 1 µM, first compound 3.16 µM
[24] = second compound 1 µM, first compound 10 µM
[25] = second compound 3.16 µM, first compound 0.0316 µM
[26] = second compound 3.16 µM, first compound 0.1 µM
[27] = second compound 3.16 µM, first compound 0.316 µM
[28] = second compound 3.16 µM, first compound 1 µM
[29] = second compound 3.16 µM, first compound 3.16 µM
[30] = second compound 3.16 µM, first compound 10 µM
[31] = second compound 10 µM, first compound 0.0316 µM
[32] = second compound 10 µM, first compound 0.1 µM
[33] = second compound 10 µM, first compound 0.316 µM
[34] = second compound 10 µM, first compound 1 µM
[35] = second compound 10 µM, first compound 3.16 µM
[36] = second compound 10 µM, first compound 10 µM
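Further: spheroids exposed to drugs for seven days.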
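Wherever viability, T/C is given: 100% = DMSO vehicle control viability.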

C=CCn1c(=O)c2cnc(Nc3ccc(N4CCN(C)CC4)cc3)nc2n1-c1cccc(C(C)(C)O)n1 + Cc1cnc(CNC(=O)c2c(=O)c3ccc(N4CCCN(C)CC4)nc3n3c2sc2ccccc23)cn1
> 10000 nM: IC50 (second compound 0.0316 µM) | IC50 (second compound 0.1 µM) | IC50 (second compound 0.316 µM) | IC50 (second compound 1 µM) | IC50 (second compound 3.16 µM)
8240 nM: IC50 (second compound 10 µM)
inactive: viability, T/C [1] 93.4% | viability, T/C [2] 70.5% | viability, T/C [3] 64.3% | viability, T/C [4] 65.9% | viability, T/C [5] 69.1% | viability, T/C [6] 78% | viability, T/C [7] 75.9% | viability, T/C [8] 86% | viability, T/C [9] 80.2% | viability, T/C [10] 72.2% | viability, T/C [11] 73.1% | viability, T/C [12] 67.8% | viability, T/C [13] 89.8% | viability, T/C [14] 82.1% | viability, T/C [15] 76% | viability, T/C [16] 61.3% | viability, T/C [17] 66% | viability, T/C [18] 61.9% | viability, T/C [19] 76.1% | viability, T/C [20] 83% | viability, T/C [21] 76.5% | viability, T/C [22] 67.9% | viability, T/C [23] 62% | viability, T/C [24] 62.4% | viability, T/C [25] 76.5% | viability, T/C [26] 71.5% | viability, T/C [27] 59.6% | viability, T/C [28] 55.4% | viability, T/C [29] 52.5% | viability, T/C [30] 58% | viability, T/C [31] 57.8% | viability, T/C [32] 66.1% | viability, T/C [33] 65.6% | viability, T/C [34] 54.9% | viability, T/C [35] 58.6% | viability, T/C [36] 48.4%

CC(C)(O)C1CCC(Nc2ccc3ncc(-c4cccc(C(F)(F)F)c4)n3n2)CC1 (stereo not drawn) + Cc1cnc(CNC(=O)c2c(=O)c3ccc(N4CCCN(C)CC4)nc3n3c2sc2ccccc23)cn1
inactive: viability, T/C [1] 94.9% | viability, T/C [2] 79.8% | viability, T/C [3] 81.8% | viability, T/C [4] 70.6% | viability, T/C [5] 55.2% | viability, T/C [6] 58.8% | viability, T/C [7] 83.2% | viability, T/C [8] 109% | viability, T/C [9] 78.4% | viability, T/C [10] 68.9% | viability, T/C [11] 49.4% | viability, T/C [12] 55.6% | viability, T/C [13] 84.3% | viability, T/C [14] 92.5% | viability, T/C [15] 83.7% | viability, T/C [16] 63.1% | viability, T/C [17] 54% | viability, T/C [18] 49.5% | viability, T/C [19] 80.4% | viability, T/C [20] 89.2% | viability, T/C [21] 84.7% | viability, T/C [22] 67.7% | viability, T/C [23] 50.4% | viability, T/C [24] 45.4% | viability, T/C [25] 79.9% | viability, T/C [26] 74.3% | viability, T/C [27] 69.8% | viability, T/C [28] 51.1% | viability, T/C [29] 34.7% | viability, T/C [30] 39.1% | viability, T/C [31] 75.6% | viability, T/C [32] 57% | viability, T/C [33] 58.6% | viability, T/C [34] 50.5%
active: viability, T/C [35] 7.86% | viability, T/C [36] 3.2%
3000 nM: IC50 (second compound 1 µM)
994 nM: IC50 (second compound 3.16 µM)
> 10000 nM: IC50 (second compound 0.0316 µM) | IC50 (second compound 0.1 µM) | IC50 (second compound 0.316 µM)
995 nM: IC50 (second compound 10 µM)

Cc1[nH]c2ccccc2c1CCNCc1ccc(/C=C/C(=O)NO)cc1 + Cc1cnc(CNC(=O)c2c(=O)c3ccc(N4CCCN(C)CC4)nc3n3c2sc2ccccc23)cn1
211 nM: IC50 (second compound 0.0316 µM)
active: viability, T/C [27] 9.8% | viability, T/C [33] 4.45%
127 nM: IC50 (second compound 0.316 µM)
144 nM: IC50 (second compound 0.1 µM)
40.5 nM: IC50 (second compound 10 µM)
62.4 nM: IC50 (second compound 1 µM)
46.9 nM: IC50 (second compound 3.16 µM)
inactive: viability, T/C (second compound 0.0316 µM, first compound 0.000999 µM) 90.4% | viability, T/C (second compound 0.0316 µM, first compound 0.00316 µM) 93% | viability, T/C (second compound 0.0316 µM, first compound 0.00999 µM) 87.7% | viability, T/C [1] 82.3% | viability, T/C (second compound 0.0316 µM, first compound 0.0999 µM) 75.7% | viability, T/C [3] 36.6% | viability, T/C (second compound 0.1 µM, first compound 0.000999 µM) 80.1% | viability, T/C (second compound 0.1 µM, first compound 0.00316 µM) 74.1% | viability, T/C (second compound 0.1 µM, first compound 0.00999 µM) 92.7% | viability, T/C [7] 101% | viability, T/C (second compound 0.1 µM, first compound 0.0999 µM) 57.8% | viability, T/C [9] 33.2% | viability, T/C (second compound 0.316 µM, first compound 0.000999 µM) 88% | viability, T/C (second compound 0.316 µM, first compound 0.00316 µM) 99.1% | viability, T/C (second compound 0.316 µM, first compound 0.00999 µM) 102% | viability, T/C [13] 74.3% | viability, T/C (second compound 0.316 µM, first compound 0.0999 µM) 57.9% | viability, T/C [15] 29.6% | viability, T/C (second compound 1 µM, first compound 0.000999 µM) 71.5% | viability, T/C (second compound 1 µM, first compound 0.00316 µM) 92% | viability, T/C (second compound 1 µM, first compound 0.00999 µM) 88.1% | viability, T/C [19] 70.9% | viability, T/C (second compound 1 µM, first compound 0.0999 µM) 35.2% | viability, T/C [21] 19.1% | viability, T/C (second compound 3.16 µM, first compound 0.000999 µM) 71.6% | viability, T/C (second compound 3.16 µM, first compound 0.00316 µM) 85.8% | viability, T/C (second compound 3.16 µM, first compound 0.00999 µM) 68% | viability, T/C [25] 62.3% | viability, T/C (second compound 3.16 µM, first compound 0.0999 µM) 29.2% | viability, T/C (second compound 10 µM, first compound 0.000999 µM) 70.9% | viability, T/C (second compound 10 µM, first compound 0.00316 µM) 60.8% | viability, T/C (second compound 10 µM, first compound 0.00999 µM) 73.2% | viability, T/C [31] 54.7% | viability, T/C (second compound 10 µM, first compound 0.0999 µM) 26.4%

O=C(NO)c1cnc(N2CCN(S(=O)(=O)c3ccc4ccccc4c3)CC2)nc1 + Cc1cnc(CNC(=O)c2c(=O)c3ccc(N4CCCN(C)CC4)nc3n3c2sc2ccccc23)cn1
active: viability, T/C [5] 5.35% | viability, T/C [6] 4.15% | viability, T/C [10] 13.8% | viability, T/C [11] 5.07% | viability, T/C [12] 3.5% | viability, T/C [16] 6.38% | viability, T/C [17] 5.3% | viability, T/C [18] 5.47% | viability, T/C [22] 6.13% | viability, T/C [23] 4.71% | viability, T/C [24] 4.58% | viability, T/C [28] 5.71% | viability, T/C [29] 5.15% | viability, T/C [30] 5.15% | viability, T/C [34] 5.41% | viability, T/C [35] 4.71% | viability, T/C [36] 3.76%
284 nM: IC50 (second compound 0.1 µM)
146 nM: IC50 (second compound 3.16 µM)
inactive: viability, T/C [1] 102% | viability, T/C [2] 86.2% | viability, T/C [3] 69% | viability, T/C [4] 10.2% | viability, T/C [7] 93.9% | viability, T/C [8] 94.6% | viability, T/C [9] 44.4% | viability, T/C [13] 84.6% | viability, T/C [14] 85.2% | viability, T/C [15] 46% | viability, T/C [19] 67.8% | viability, T/C [20] 86% | viability, T/C [21] 30.5% | viability, T/C [25] 72.2% | viability, T/C [26] 63.9% | viability, T/C [27] 21.5% | viability, T/C [31] 71.6% | viability, T/C [32] 54.2% | viability, T/C [33] 11.4%
195 nM: IC50 (second compound 1 µM)
112 nM: IC50 (second compound 10 µM)
456 nM: IC50 (second compound 0.0316 µM)
281 nM: IC50 (second compound 0.316 µM)
